“And” between values parts separate entries of the source, which are not always exact repeats. Identical values can stand only once. Values belong to the compound of their own block, whether it stands above or below them.
System: 519858-162-T-J1-PDC complex spheroid viability
Assay: Anticancer human tumor 519858-162-T-J1-PDC patient-derived colon adenocarcinoma cell line growth inhibition [GQUAD]
Settings: for viability, T/C: stronger effect = lower value
In short: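 Tumor cells were grown as complex spheroids with HUVEC endothelial cells and mesenchymal stem cells as stroma. G-quadruplex stabilizers were combined with targeted agents over half-log dilutions from near the clinical Cmax, or from 10 microM.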

[1] = curve of first compound, second compound 0.0316 µM
[2] = curve of first compound, second compound 0.1 µM
[3] = curve of first compound, second compound 0.316 µM
[4] = curve of first compound, second compound 1 µM
[5] = curve of first compound, second compound 3.16 µM
[6] = curve of first compound, second compound 10 µM
[7] = second compound 0.0316 µM, first compound 0.0316 µM
[8] = second compound 0.0316 µM, first compound 0.1 µM
[9] = second compound 0.0316 µM, first compound 0.316 µM
[10] = second compound 0.0316 µM, first compound 1 µM
[11] = second compound 0.0316 µM, first compound 3.16 µM
[12] = second compound 0.0316 µM, first compound 10 µM
[13] = second compound 0.1 µM, first compound 0.0316 µM
[14] = second compound 0.1 µM, first compound 0.1 µM
[15] = second compound 0.1 µM, first compound 0.316 µM
[16] = second compound 0.1 µM, first compound 1 µM
[17] = second compound 0.1 µM, first compound 3.16 µM
[18] = second compound 0.1 µM, first compound 10 µM
[19] = second compound 0.316 µM, first compound 0.0316 µM
[20] = second compound 0.316 µM, first compound 0.1 µM
[21] = second compound 0.316 µM, first compound 0.316 µM
[22] = second compound 0.316 µM, first compound 1 µM
[23] = second compound 0.316 µM, first compound 3.16 µM
[24] = second compound 0.316 µM, first compound 10 µM
[25] = second compound 1 µM, first compound 0.0316 µM
[26] = second compound 1 µM, first compound 0.1 µM
[27] = second compound 1 µM, first compound 0.316 µM
[28] = second compound 1 µM, first compound 1 µM
[29] = second compound 1 µM, first compound 3.16 µM
[30] = second compound 1 µM, first compound 10 µM
[31] = second compound 3.16 µM, first compound 0.0316 µM
[32] = second compound 3.16 µM, first compound 0.1 µM
[33] = second compound 3.16 µM, first compound 0.316 µM
[34] = second compound 3.16 µM, first compound 1 µM
[35] = second compound 3.16 µM, first compound 3.16 µM
[36] = second compound 3.16 µM, first compound 10 µM
[37] = second compound 10 µM, first compound 0.0316 µM
[38] = second compound 10 µM, first compound 0.1 µM
[39] = second compound 10 µM, first compound 0.316 µM
[40] = second compound 10 µM, first compound 1 µM
[41] = second compound 10 µM, first compound 3.16 µM
[42] = second compound 10 µM, first compound 10 µM
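Also: spheroids exposed to compounds for 7 days.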
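For viability, T/C in this document: 100% = DMSO vehicle control viability.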

Structure (SMILES): CC1COCCN1c1cc(C2(S(C)(=N)=O)CC2)nc(-c2ccnc3[nH]ccc23)n1 (stereo not drawn) + CN(C)c1ccc(Nc2c3ccc(NC(=O)CCN4CCCC4)cc3nc3cc(NC(=O)CCN4CCCC4)ccc23)cc1
IC50 [1]: > 10 µM
IC50 [2]: > 10 µM
IC50 [3]: > 10 µM
IC50 [4]: > 10 µM
IC50 [5]: > 10 µM
IC50 [6]: > 10 µM
viability, T/C [7]: 115%
viability, T/C [8]: 102%
viability, T/C [9]: 119%
viability, T/C [10]: 115%
viability, T/C [11]: 98.3%
viability, T/C [12]: 77.7%
viability, T/C [13]: 133%
viability, T/C [14]: 124%
viability, T/C [15]: 125%
viability, T/C [16]: 110%
viability, T/C [17]: 94.2%
viability, T/C [18]: 70%
viability, T/C [19]: 123%
viability, T/C [20]: 108%
viability, T/C [21]: 81.1%
viability, T/C [22]: 79.7%
viability, T/C [23]: 91.1%
viability, T/C [24]: 100%
viability, T/C [25]: 88.2%
viability, T/C [26]: 88.3%
viability, T/C [27]: 90.8%
viability, T/C [28]: 105%
viability, T/C [29]: 86.5%
viability, T/C [30]: 100%
viability, T/C [31]: 93.3%
viability, T/C [32]: 60.1%
viability, T/C [33]: 93.9%
viability, T/C [34]: 111%
viability, T/C [35]: 84.8%
viability, T/C [36]: 66.1%
viability, T/C [37]: 79.3%
viability, T/C [38]: 62.7%
viability, T/C [39]: 82.8%
viability, T/C [40]: 99.5%
viability, T/C [41]: 82.5%
viability, T/C [42]: 84.8%

Structure (SMILES): CC(=O)O[C@H]1C(=O)[C@@]2(C)[C@H]([C@H](OC(=O)c3ccccc3)[C@]3(O)C[C@H](OC(=O)[C@H](O)[C@@H](NC(=O)c4ccccc4)c4ccccc4)C(C)=C1C3(C)C)[C@]1(OC(C)=O)CO[C@@H]1C[C@@H]2O
viability, T/C (compound 0.0316 µM): 83.9% and 107% and 108%
viability, T/C (compound 0.1 µM): 113% and 101% and 80.3%
viability, T/C (compound 0.316 µM): 93.4% and 80.2% and 97.1%
viability, T/C (compound 1 µM): 87% and 83.3% and 85.1%
viability, T/C (compound 3.16 µM): 89% and 82.4% and 95.4%
viability, T/C (compound 10 µM): 101% (2×) and 86.7%
IC50 (curve of compound): > 10 µM

Structure (SMILES): COc1ncnc(C2CC2)c1-c1ncc2cnn(Cc3ccc(-c4nc(C(F)(F)F)cn4C(C)C)cc3)c2n1
viability, T/C (compound 0.0316 µM): 104% and 85.1%
viability, T/C (compound 0.1 µM): 111% and 83.2%
viability, T/C (compound 0.316 µM): 101% and 92.7%
viability, T/C (compound 1 µM): 119% and 75.2%
viability, T/C (compound 3.16 µM): 95.7% and 89.8%
viability, T/C (compound 10 µM): 83.2% and 81.7%
IC50 (curve of compound): > 10 µM

Structure (SMILES): COc1cc(C2c3cc4c(cc3C(OC3OC5COC(C)OC5C(O)C3O)C3COC(=O)C23)OCO4)cc(OC)c1O (stereo not drawn)
viability, T/C (compound 0.0316 µM): 165% and 107% and 86%
viability, T/C (compound 0.1 µM): 90.6% and 89.7% and 81.6%
viability, T/C (compound 0.316 µM): 82.8% and 98% and 61.3%
viability, T/C (compound 1 µM): 123% and 112% and 70.1%
viability, T/C (compound 3.16 µM): 75% and 96.2% and 89.7%
viability, T/C (compound 10 µM): 80.6% and 72.3% and 83.6%
IC50 (curve of compound): > 10 µM

Now from value to compound, other results behind:

IC50 [1]: 10 µM
IC50 [2]: 3.66 µM
IC50 [3]: 4.18 µM
IC50 [4]: 9.07 µM
IC50 [5]: 0.243 µM
IC50 [6]: < 0.0316 µM
Structure (SMILES): COc1ccc([C@@H](O)c2cc(-c3ncnc4cc(N5CCOCC5)ccc34)c(F)cc2Cl)nn1 + Cc1cnc(CNC(=O)c2c(=O)c3ccc(N4CCCN(C)CC4)nc3n3c2sc2ccccc23)cn1
viability, T/C [7]: 72.4%
viability, T/C [8]: 102%
viability, T/C [9]: 81.6%
viability, T/C [10]: 99.3%
viability, T/C [11]: 48.9%
viability, T/C [12]: 53%
viability, T/C [13]: 75.6%
viability, T/C [14]: 70.5%
viability, T/C [15]: 62.8%
viability, T/C [16]: 50.8%
viability, T/C [17]: 55.1%
viability, T/C [18]: 44.8%
viability, T/C [19]: 109%
viability, T/C [20]: 72.9%
viability, T/C [21]: 80%
viability, T/C [22]: 56.1%
viability, T/C [23]: 41.7%
viability, T/C [24]: 52%
viability, T/C [25]: 56.7%
viability, T/C [26]: 49.9%
viability, T/C [27]: 48.1%
viability, T/C [28]: 47.9%
viability, T/C [29]: 67.3%
viability, T/C [30]: 41%
viability, T/C [31]: 58.4%
viability, T/C [32]: 62.2%
viability, T/C [33]: 46.9%
viability, T/C [34]: 30%
viability, T/C [35]: 34.8%
viability, T/C [36]: 45.9%
viability, T/C [37]: 36.6%
viability, T/C [38]: 33.5%
viability, T/C [39]: 49.3%
viability, T/C [40]: 35.2%
viability, T/C [41]: 47.7%
viability, T/C [42]: 37.7%

IC50 (curve of compound): > 10 µM
Structure (SMILES): CCCS(=O)(=O)Nc1ccc(F)c(C(=O)c2c[nH]c3ncc(-c4ccc(Cl)cc4)cc23)c1F
viability, T/C (compound 0.0316 µM): 88.3%
viability, T/C (compound 0.1 µM): 112%
viability, T/C (compound 0.316 µM): 114%
viability, T/C (compound 1 µM): 97.1%
viability, T/C (compound 3.16 µM): 125%
viability, T/C (compound 10 µM): 103%

IC50 (curve of compound): > 10 µM
Structure (SMILES): C=CC(=O)N1CCN(c2nc(=O)n(-c3c(C)ccnc3C(C)C)c3nc(-c4c(O)cccc4F)c(F)cc23)C(C)C1 (stereo not drawn)
viability, T/C (compound 0.0316 µM): 75% and 84.1% and 70.8%
viability, T/C (compound 0.1 µM): 84.2% and 85.5% and 98.3%
viability, T/C (compound 0.316 µM): 89% and 80.9% and 104%
viability, T/C (compound 1 µM): 103% and 77.7% and 99%
viability, T/C (compound 3.16 µM): 104% and 70.7% and 95.2%
viability, T/C (compound 10 µM): 71.5% and 91% and 74.5%

IC50 (compound alone, run of 02/20/2024): 8.82 µM and > 10 µM and 9.27 µM
IC50 (compound alone, run of 02/26/2024): > 10 µM
Structure (SMILES): Cc1[nH]c2ccc(F)cc2c1-c1nc2c3cccnc3c3ncccc3c2[nH]1
viability, T/C (compound 0.1 µM): 87.9% [middle of 9 runs]
viability, T/C (compound 0.316 µM): 92.2% [middle of 9 runs]

— PubChem BioAssay AID2060507 (Molecular Pharmacology Branch, DTP, NCI, 2025)
